Data published in article PMC8717895 (Neuro-oncology Advances, 2021).
“Also recorded” adds a separate entry of the source. Read-outs that look alike come from different tables or passages of the source. Marks after values point to notes of the source that are not given here.

Format: in vivo, human
[1] = stratum A, Level 1 (100 mg/m^2), Grade 1/2
[2] = stratum A, Level 1 (100 mg/m^2), Grade 3/4
[3] = stratum A, Level 2 (130 mg/m^2), Grade 1/2
[4] = stratum A, Level 2 (130 mg/m^2), Grade 3/4
[5] = stratum A, Level 3 (170 mg/m^2), Grade 1/2
[6] = stratum A, Level 3 (170 mg/m^2), Grade 3/4
[7] = stratum A, Level 4 (220 mg/m^2), Grade 1/2
[8] = stratum A, Level 4 (220 mg/m^2), Grade 3/4

With `CC1(COc2ccc3c(c2)ncn3-c2ccc3cccc(N4CCC(N)CC4)c3n2)COC1` [crenolanib] the “Recommended pediatric phase II dosage” value (once daily with food, with or without RT) was 170 mg/m^2, the ALT increased [1] was 10 (83%) and the AST increased [1] was 6 (50%). For the same compound, the Abdominal pain [1] was 2 (17%), the Alkaline phosphatase increased [1] was 1 (8%) and the Anemia [1] was 3 (25%). For the same compound, the Anorexia [1] was 1 (8%), the Diarrhea [1] was 2 (17%) and the Dyspepsia [1] was 2 (17%). The GGT increased [1] was 5 (42%), the Headache [1] was 0 and the Hematuria [1] was 3 (25%). The Hypermagnesemia [1] was 3 (25%), the Hypernatremia [1] was 1 (8%) and the Hypoalbuminemia [1] was 7 (58%). The Hypocalcemia [1] was 1 (8%), the Hypokalemia [1] was 5 (42%) and the Hypophosphatemia [1] was 7 (58%). The Lipase increased [1] was 5 (42%), the Lymphocyte count decreased [1] was 2 (17%) and the Nausea [1] was 8 (67%). The Neutrophil count decreased [1] was 0, the Platelet count decreased [1] was 4 (33%) and the Proteinuria [1] was 4 (33%). The Serum amylase increased [1] was 4 (33%), the Stomach pain [1] was 1 (8%) and the Vomiting [1] was 8 (67%). The “White blood cell decreased” value [1] was 4 (33%), the ALT increased [2] was 1 (8%) and the AST increased [2] was 0. The Abdominal pain [2] was 0, the Alkaline phosphatase increased [2] was 0 and the Anemia [2] was 1 (8%). The Anorexia [2] was 0, the Diarrhea [2] was 0 and the Dyspepsia [2] was 0. For the same compound, the GGT increased [2] was 3 (25%), the Headache [2] was 1 (8%) and the Hematuria [2] was 0. It also gave a Hypermagnesemia [2] of 0, a Hypernatremia [2] of 0 and a Hypoalbuminemia [2] of 0. The Hypocalcemia [2] was 0, the Hypokalemia [2] was 1 (8%) and the Hypophosphatemia [2] was 0. The Lipase increased [2] was 2 (17%), the Lymphocyte count decreased [2] was 8 (67%) and the Nausea [2] was 0. For the same compound, the Neutrophil count decreased [2] was 5 (42%)^a, the Platelet count decreased [2] was 1 (8%) and the Proteinuria [2] was 1 (8%). The Serum amylase increased [2] was 2 (17%), the Stomach pain [2] was 0 and the Vomiting [2] was 1 (8%). The “White blood cell decreased” value [2] was 5 (42%), the ALT increased [3] was 2 (33%) and the AST increased [3] was 4 (67%). For the same compound, the Abdominal pain [3] was 3 (50%), the Alkaline phosphatase increased [3] was 3 (50%) and the Anemia [3] was 3 (50%). For the same compound, the Anorexia [3] was 1 (17%), the Diarrhea [3] was 3 (50%) and the Dyspepsia [3] was 0. The GGT increased [3] was 5 (83%), the Headache [3] was 1 (17%) and the Hematuria [3] was 2 (33%). For the same compound, the Hypermagnesemia [3] was 1 (17%), the Hypernatremia [3] was 1 (17%) and the Hypoalbuminemia [3] was 2 (33%). The Hypocalcemia [3] was 2 (33%), the Hypokalemia [3] was 1 (17%) and the Hypophosphatemia [3] was 3 (50%). For the same compound, the Lipase increased [3] was 2 (33%), the Lymphocyte count decreased [3] was 0 and the Nausea [3] was 5 (83%). For the same compound, the Neutrophil count decreased [3] was 1 (17%), the Platelet count decreased [3] was 3 (50%) and the Proteinuria [3] was 5 (83%). The Serum amylase increased [3] was 0, the Stomach pain [3] was 2 (33%) and the Vomiting [3] was 6 (100%). For the same compound, the “White blood cell decreased” value [3] was 3 (50%), the ALT increased [4] was 2 (33%) and the AST increased [4] was 0. The Abdominal pain [4] was 0, the Alkaline phosphatase increased [4] was 0 and the Anemia [4] was 0. For the same compound, the Anorexia [4] was 0, the Diarrhea [4] was 0 and the Dyspepsia [4] was 0. For the same compound, the GGT increased [4] was 0, the Headache [4] was 1 (17%) and the Hematuria [4] was 0. For the same compound, the Hypermagnesemia [4] was 0, the Hypernatremia [4] was 0 and the Hypoalbuminemia [4] was 0. For the same compound, the Hypocalcemia [4] was 0, the Hypokalemia [4] was 1 (17%) and the Hypophosphatemia [4] was 0. For the same compound, the Lipase increased [4] was 0, the Lymphocyte count decreased [4] was 6 (100%) and the Nausea [4] was 0. For the same compound, the Neutrophil count decreased [4] was 2 (33%), the Platelet count decreased [4] was 0 and the Proteinuria [4] was 1 (17%). The Serum amylase increased [4] was 1 (17%), the Stomach pain [4] was 0 and the Vomiting [4] was 0. The “White blood cell decreased” value [4] was 2 (33%), the ALT increased [5] was 4 (67%) and the AST increased [5] was 5 (83%). For the same compound, the Abdominal pain [5] was 2 (33%), the Alkaline phosphatase increased [5] was 2 (33%) and the Anemia [5] was 3 (50%). The Anorexia [5] was 3 (50%), the Diarrhea [5] was 3 (50%) and the Dyspepsia [5] was 1 (17%). For the same compound, the GGT increased [5] was 4 (67%), the Headache [5] was 0 and the Hematuria [5] was 3 (50%). For the same compound, the Hypermagnesemia [5] was 3 (50%), the Hypernatremia [5] was 2 (33%) and the Hypoalbuminemia [5] was 4 (67%). The Hypocalcemia [5] was 1 (17%), the Hypokalemia [5] was 2 (33%) and the Hypophosphatemia [5] was 3 (50%). The Lipase increased [5] was 1 (17%), the Lymphocyte count decreased [5] was 2 (33%) and the Nausea [5] was 5 (83%). For the same compound, the Neutrophil count decreased [5] was 1 (17%), the Platelet count decreased [5] was 2 (33%) and the Proteinuria [5] was 5 (83%). For the same compound, the Serum amylase increased [5] was 3 (50%), the Stomach pain [5] was 0 and the Vomiting [5] was 6 (100%). For the same compound, the “White blood cell decreased” value [5] was 4 (67%), the ALT increased [6] was 2 (33%) and the AST increased [6] was 1 (17%). It also gave an Abdominal pain [6] of 0, an Alkaline phosphatase increased [6] of 0 and an Anemia [6] of 0. The Anorexia [6] was 0, the Diarrhea [6] was 0 and the Dyspepsia [6] was 0. The GGT increased [6] was 2 (33%)^a, the Headache [6] was 0 and the Hematuria [6] was 0. For the same compound, the Hypermagnesemia [6] was 0, the Hypernatremia [6] was 0 and the Hypoalbuminemia [6] was 0. The Hypocalcemia [6] was 0, the Hypokalemia [6] was 2 (33%) and the Hypophosphatemia [6] was 0. For the same compound, the Lipase increased [6] was 0, the Lymphocyte count decreased [6] was 4 (67%) and the Nausea [6] was 0. For the same compound, the Neutrophil count decreased [6] was 0, the Platelet count decreased [6] was 0 and the Proteinuria [6] was 0. It also gave a Serum amylase increased [6] of 0, a Stomach pain [6] of 0 and a Vomiting [6] of 0. For the same compound, the “White blood cell decreased” value [6] was 1 (17%), the ALT increased [7] was 6 (75%) and the AST increased [7] was 7 (88%). The Abdominal pain [7] was 1 (13%), the Alkaline phosphatase increased [7] was 1 (13%) and the Anemia [7] was 6 (75%). The Anorexia [7] was 2 (25%), the Diarrhea [7] was 4 (50%) and the Dyspepsia [7] was 0. The GGT increased [7] was 6 (75%), the Headache [7] was 1 (13%) and the Hematuria [7] was 2 (25%). For the same compound, the Hypermagnesemia [7] was 5 (63%), the Hypernatremia [7] was 0 and the Hypoalbuminemia [7] was 6 (75%). The Hypocalcemia [7] was 3 (38%), the Hypokalemia [7] was 3 (38%) and the Hypophosphatemia [7] was 6 (75%). For the same compound, the Lipase increased [7] was 2 (25%), the Lymphocyte count decreased [7] was 0 and the Nausea [7] was 7 (88%). The Neutrophil count decreased [7] was 1 (13%), the Platelet count decreased [7] was 3 (38%) and the Proteinuria [7] was 5 (63%). For the same compound, the Serum amylase increased [7] was 3 (38%), the Stomach pain [7] was 0 and the Vomiting [7] was 8 (100%). The “White blood cell decreased” value [7] was 7 (88%), the ALT increased [8] was 2 (25%)^a and the AST increased [8] was 0. The Abdominal pain [8] was 0, the Alkaline phosphatase increased [8] was 0 and the Anemia [8] was 0. The Anorexia [8] was 0, the Diarrhea [8] was 0 and the Dyspepsia [8] was 0. For the same compound, the GGT increased [8] was 1 (13%)^a, the Headache [8] was 0 and the Hematuria [8] was 0. The Hypermagnesemia [8] was 0, the Hypernatremia [8] was 0 and the Hypoalbuminemia [8] was 0. The Hypocalcemia [8] was 1 (13%), the Hypokalemia [8] was 2 (25%) and the Hypophosphatemia [8] was 1 (13%). For the same compound, the Lipase increased [8] was 0, the Lymphocyte count decreased [8] was 8 (100%) and the Nausea [8] was 0. It also gave a Neutrophil count decreased [8] of 0, a Platelet count decreased [8] of 0 and a Proteinuria [8] of 0. For the same compound, the Serum amylase increased [8] was 0, the Stomach pain [8] was 0 and the Vomiting [8] was 0. The “White blood cell decreased” value [8] was 0, the “DLTs attributable to crenolanib during the DLT observation period” value (“DLTs attributable” for short) (stratum A, dose level 1) was “grade 4 neutropenia” and the “DLTs attributable” value (stratum A, dose level 3) was “grade 3 gamma-glutamyl transferase (GGT) elevation”. The “DLTs attributable” value (stratum A, dose level 4) was “grade 3 GGT elevation; also recorded: grade 3 ALT elevation”, the “patients having grade 3/4 elevations of ALT, AST, GGT, or alkaline phosphatase” value (stratum A, during and after the DLT period) was 28% and the “Maximum tolerated dose (MTD)” value (stratum A, once daily during and after RT, pediatric) was 170 mg/m^2. The “Most common grade 3/4 toxicity” value (stratum A, resolved with drug interruption) was “leukopenia”.
